Assay results reported in article PMC6406907, “A H2AX–CARP-1 Interaction Regulates Apoptosis Signaling Following DNA Damage” (Cancers, 2019).
No end group written: not given here. HA = not defined here

Test system: γH2AX
Test: Confocal immunofluorescence of γH2AX / peptide, MDA-MB-468
Assay type: cell-based, human
Protocol: Cells were plated onto chamber slides one day before treatment. Following treatment of cells with respective compounds, the adherent cells were fixed with 5% formaldehyde for 10 min and then washed with phosphate buffered saline (PBS). Samples were blocked (0.5% NP-40, 5% milk powder, 1% fetal bovine serum) for 30 min. After a single wash with PBS, cells were incubated with primary antibodies for 45 to 60 min. Coverslips were washed with PBS and then incubated with secondary antibodies for another 45 to 60 min. They were then washed with PBS and mounted with 0.1 μg/mL 4′,6′-diamidino-2-phenylindole (DAPI) containing mounting solution. For confocal imaging, cells were first fixed with PFA, then stained for CARP-1 by myc-tag antibodies (green), γH2AX antibodies (red), and DAPI (blue) for nuclear staining. Immunofluorescent or confocal images were taken using a Zeiss LSM 510 Meta NLO (63×).
Our next objective was to analyze the biological significance of the CARP-1–H2AX interaction in cells. […] Next, we measured activation of caspases as an apoptosis readout in cells expressing myc-His-tagged wild-type CARP-1 or CARP-1 (Δ600–650) proteins that were either untreated or treated with Adriamycin or CFM compounds as detailed in Section 2. We utilized a lower, 4–5 μM dose of Adriamycin or CFM compounds because a 10 μM Adriamycin dose caused interference in signal output/readout in this particular assay, likely due to background fluorescence that is emitted by higher dose of Adriamycin. Although Adriamycin has a maximum excitation and emission wavelength of 470 and 560 nm, respectively, we found significant fluorescence emission in cells treated with 10 μM Adriamycin at a 380-nm excitation wavelength. Moreover, since caspase activation precedes apoptotic cell death, we utilized a lower dose of Adriamycin to permit a robust measurement of optimal caspase activation in cells undergoing moderate apoptosis with lower/minimal interference by Adriamycin-induced fluorescence signals. […]

Substance | nuclear presence of γH2AX (MDA-MB-468 expressing EGFP-H2AX (1–35) vs EGFP, Adriamycin-treated) | co-localization with γH2AX (6 μg/mL peptide, 72 h, confocal, insets top and middle rows of Figure 8C) | presence of γH2AX in Adriamycin-treated cells (MDA-MB-468 pre-incubated with 6 μg/mL peptide, 72 h, then Adriamycin, vs no peptide or scrambled peptide)
EGFP-H2AX (1–35): EGFP-tagged fusion protein stably expressed in MDA-MB-468 and HeLa sublines (MSGRGKTGGKARAKAKSRSSRAGLQFPVGRVHRLL; also: EGFP fusion, end not given here; UniProt P16104 1-35, looked up, fragment) | increased nuclear presence of γH2AX | – | –
His-TAT-HA-CARP-1 (636–650): His-TAT-HA-tagged CARP-1 (636–650) peptide, >95% purity, commercially synthesized ({His-TAT-HA}-PKTMKVNDLRKELES; reading uncertain; UniProt Q8IX12 636-650, looked up, fragment) | – | co-localization | increased presence of γH2AX
